Assay results published in US4265885A, “Anthracyclines containing branched-chain amino-deoxy sugars” (Farmitalia Carlo Erba S.p.A., priority 1978, dated 1981).
Converted amounts (≈) assume the structure as drawn. Where two headings read alike, the source gives them in different places.

Experiments:
P 388 leukemia = assay: Activity against P 388 leukemia in mice (survival); assay type: in vivo; details: as hydrochloride
Procedure: (§1) The new anthracycline glycosides described in the invention, display antitumor activity. The compounds have been tested against HeLa cells "in vitro" (time of exposure to the drugs: 24 hours) and on P 388 leukemia in mice in comparison with daunorubicin and doxorubicin. The results of the "in vitro" tests, shown in Table I are reported as ID50 (Inhibiting Dose 50% in ng/ml).
(§2) The antitumor activity was tested "in vivo" on P 388 leukemia in comparison with daunorubicin and doxorubicin.
(§3) ^(a) Mice were treated i.p. on day 1 after tumor cell inoculation.
^(b) Median survival time of treated mice, over median survival time

HeLa cells = assay: Activity on HeLa cells viability in vitro; assay type: cell-based; details: Homo sapiens, read-out: ID50 (Inhibiting Dose 50%)
[1] = Toxic deaths in mice treated in the P 388 leukemia test; assay type: in vivo; details: as hydrochloride
Procedure: as §1, §2, §3

[2] = dose 4.4 mg/kg i.p. on day 1 after tumor cell inoculation
[3] = dose 6.6 mg/kg i.p. on day 1 after tumor cell inoculation
[4] = dose 10.0 mg/kg i.p. on day 1 after tumor cell inoculation
[5] = HeLa cells viability in vitro, time of exposure to the drugs: 24 hours, compounds as hydrochloride
[6] = dose 22.5 mg/kg i.p. on day 1 after tumor cell inoculation
[7] = dose 33.7 mg/kg i.p. on day 1 after tumor cell inoculation
[8] = dose 50.5 mg/kg i.p. on day 1 after tumor cell inoculation
[9] = dose 2.9 mg/kg i.p. on day 1 after tumor cell inoculation

Compound: COc1cccc2c1C(=O)c1c(O)c3c(c(O)c1C2=O)C[C@@](O)(C(=O)CO)C[C@@H]3O[C@H]1C[C@H](N)[C@](C)(OC)[C@H](C)O1 [4'-C-Methyl-4'-O-methyl-adriamycin]
- T/C (median survival time of treated mice over median survival time of control × 100) (P 388 leukemia; [2]): 165%
- T/C (median survival time of treated mice over median survival time of control × 100) (P 388 leukemia; [3]): 172%
- T/C (median survival time of treated mice over median survival time of control × 100) (P 388 leukemia; [4]): 202%
- IC50 (HeLa cells; [5]): 0.005 µg/mL (≈ 0.00875 µM)
- No. of toxic deaths/total [1, 2]: 0/10
- No. of toxic deaths/total [1, 3]: 0/10
- No. of toxic deaths/total [1, 4]: 2/17

Compound: COc1cccc2c1C(=O)c1c(O)c3c(c(O)c1C2=O)C[C@@](O)(C(C)=O)C[C@@H]3O[C@H]1C[C@H](N)[C@](C)(OC)[C@H](C)O1 [4'-C-methyl-4'-O-methyl-daunorubicin (V), 4'-C-Methyl-4'-O-methyl-daunomycin]
- T/C (median survival time of treated mice over median survival time of control × 100) (P 388 leukemia; [3]): 140%
- T/C (median survival time of treated mice over median survival time of control × 100) (P 388 leukemia; [6]): 155%
- T/C (median survival time of treated mice over median survival time of control × 100) (P 388 leukemia; [7]): 150%
- T/C (median survival time of treated mice over median survival time of control × 100) (P 388 leukemia; [8]): 137%
- IC50 (HeLa cells; [5]): 0.034 µg/mL (≈ 0.0612 µM)
- No. of toxic deaths/total [1, 3]: 0/18
- No. of toxic deaths/total [1, 6]: 0/20
- No. of toxic deaths/total [1, 7]: 0/26
- No. of toxic deaths/total [1, 8]: 1/5

Compound: COc1cccc2c1C(=O)c1c(O)c3c(c(O)c1C2=O)C[C@@](O)(C(=O)CO)C[C@@H]3O[C@H]1C[C@H](N)[C@@](C)(OC)[C@H](C)O1 [4'-Epi-4'-C-methyl-4'-O-methyl-adriamycin]
- T/C (median survival time of treated mice over median survival time of control × 100) (P 388 leukemia; [2]): 165%
- T/C (median survival time of treated mice over median survival time of control × 100) (P 388 leukemia; [3]): 185%
- T/C (median survival time of treated mice over median survival time of control × 100) (P 388 leukemia; [4]): 205%
- IC50 (HeLa cells; [5]): 0.027 µg/mL (≈ 0.0472 µM)
- No. of toxic deaths/total [1, 2]: 0/8
- No. of toxic deaths/total [1, 3]: 0/8
- No. of toxic deaths/total [1, 4]: 0/8

Compound: COc1cccc2c1C(=O)c1c(O)c3c(c(O)c1C2=O)C[C@@](O)(C(C)=O)C[C@@H]3O[C@H]1C[C@H](N)[C@@](C)(OC)[C@H](C)O1 [4'-Epi-4'-C-methyl-4'-O-methyl-daunomycin]
- T/C (median survival time of treated mice over median survival time of control × 100) (P 388 leukemia; [3]): 140%
- T/C (median survival time of treated mice over median survival time of control × 100) (P 388 leukemia; [4]): 147%
- T/C (median survival time of treated mice over median survival time of control × 100) (P 388 leukemia; [6]): 150%
- IC50 (HeLa cells; [5]): 0.0025 to 0.0034 µg/mL (≈ 0.0045 to 0.00612 µM)
- No. of toxic deaths/total [1, 3]: 0/8
- No. of toxic deaths/total [1, 4]: 0/8
- No. of toxic deaths/total [1, 6]: 0/8

Compound: COc1cccc2c1C(=O)c1c(O)c3c(c(O)c1C2=O)C[C@@](O)(C(C)=O)C[C@@H]3O[C@H]1C[C@H](N)[C@H](O)[C@H](C)O1 [Daunorubicin, reference compound]
- T/C (median survival time of treated mice over median survival time of control × 100) (P 388 leukemia; [9]): 163%
- T/C (median survival time of treated mice over median survival time of control × 100) (P 388 leukemia; [2]): 161%
- T/C (median survival time of treated mice over median survival time of control × 100) (P 388 leukemia; [3]): 156%
- IC50 (HeLa cells; HeLa, 24 h): 0.01 µg/mL (≈ 0.019 µM)
- No. of toxic deaths/total [1, 9]: 0/48
- No. of toxic deaths/total [1, 2]: 3/48
- No. of toxic deaths/total [1, 3]: 28/48

Compound: COc1cccc2c1C(=O)c1c(O)c3c(c(O)c1C2=O)C[C@@](O)(C(=O)CO)C[C@@H]3O[C@H]1C[C@H](N)[C@H](O)[C@H](C)O1 [Doxorubicin, reference compound]
- T/C (median survival time of treated mice over median survival time of control × 100) (P 388 leukemia; [2]): 190%
- T/C (median survival time of treated mice over median survival time of control × 100) (P 388 leukemia; [3]): 201%
- T/C (median survival time of treated mice over median survival time of control × 100) (P 388 leukemia; [4]): 241%
- IC50 (HeLa cells; HeLa, 24 h): 0.01 µg/mL (≈ 0.0184 µM)
- No. of toxic deaths/total [1, 2]: 0/28
- No. of toxic deaths/total [1, 3]: 0/28
- No. of toxic deaths/total [1, 4]: 5/28
